Data taken from the supplement of paper PMC10307832.

Assays:
Experiment in all cases: relative viability (nuclei count vs DMSO), 5 days (fraction); higher = more cells survive
[1] = compound: CC(C)C[C@H](NC(=O)[C@H](Cc1ccccc1)NC(=O)c1cnccn1)B(O)O [Bortezomib] + Nc1ncn([C@H]2C[C@H](O)[C@@H](CO)O2)c(=O)n1 [Decitabine] (partner 2 µM)
Method in brief: (§1)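 Lung cancer cell lines were pin-tool dosed in 1536-well plates on the day after seeding, with either a lone drug or a fixed anchor-drug dose plus five library-drug doses (not always all listed) in √10 steps. Nuclei were counted on 4× images after 5 days. Relative viability is the ratio of treated-well to vehicle-well nuclei counts, with each value a median of duplicate plates.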

[2] = compound: CC1=CC(=NN1)NC2=CC(=NC(=N2)/C=C/C3=CC=CC=C3)N4CCN(CC4)C + Cc1nc(Nc2ncc(C(=O)Nc3c(C)cccc3Cl)s2)cc(N2CCN(CCO)CC2)n1 [Dasatinib] (partner 0.075 µM)
Method in brief: as §1

[3] = compound: COC1=CC(c2cc3ccccc3[nH]2)=N/C1=C\c1[nH]c(C)cc1C [Obatoclax] + COc1cc2c(Oc3ccc(NC(=O)C4(C(=O)Nc5ccc(F)cc5)CC4)cc3F)ccnc2cc1OCCCN1CCOCC1 [Foretinib] (partner 0.25 µM)
Method in brief: as §1

[4] = compound: CC(C)C[C@H](NC(=O)[C@H](Cc1ccccc1)NC(=O)c1cnccn1)B(O)O [Bortezomib] + CC1(C)CCC(c2ccc(Cl)cc2)=C(CN2CCN(c3ccc(C(=O)NS(=O)(=O)c4ccc(N[C@H](CCN5CCOCC5)CSc5ccccc5)c(S(=O)(=O)C(F)(F)F)c4)cc3)CC2)C1 [Navitoclax] (partner 0.5 µM)
Method in brief: as §1

Cell Line: SK-LU-1
- relative viability ([1]; first compound 0.0002 µM): 0.499
- relative viability ([1]; first compound 0.000632 µM): 0.644
- relative viability ([1]; first compound 0.002 µM): 0.533
- relative viability ([1]; first compound 0.006325 µM): 0.245
- relative viability ([1]; first compound 0.02 µM): 0.174
- relative viability ([2]; first compound 0.08 µM): 0.174
- relative viability ([2]; first compound 0.253 µM): 0.171
- relative viability ([2]; first compound 0.8 µM): 0.156
- relative viability ([2]; first compound 2.53 µM): 0.108
- relative viability ([2]; first compound 8 µM): 0.0621
- relative viability ([3]; first compound 0.01 µM): 0.775
- relative viability ([3]; first compound 0.03162 µM): 0.855
- relative viability ([3]; first compound 0.1 µM): 0.804
- relative viability ([3]; first compound 0.3162 µM): 0.409
- relative viability ([3]; first compound 1 µM): 0.357
- relative viability ([4]; first compound 0.0002 µM): 0.781
- relative viability ([4]; first compound 0.000632 µM): 0.83
- relative viability ([4]; first compound 0.002 µM): 0.903
- relative viability ([4]; first compound 0.006325 µM): 0.0872
- relative viability ([4]; first compound 0.02 µM): 0.0835

Cell Line: HCC-78
- relative viability ([1]; first compound 0.0002 µM): 0.703
- relative viability ([1]; first compound 0.000632 µM): 0.744
- relative viability ([1]; first compound 0.002 µM): 0.644
- relative viability ([1]; first compound 0.006325 µM): 0.615
- relative viability ([1]; first compound 0.02 µM): 0.291
- relative viability ([2]; first compound 0.08 µM): 0.444
- relative viability ([2]; first compound 0.253 µM): 0.436
- relative viability ([2]; first compound 0.8 µM): 0.469
- relative viability ([2]; first compound 2.53 µM): 0.234
- relative viability ([2]; first compound 8 µM): 0.221
- relative viability ([3]; first compound 0.01 µM): 0.532
- relative viability ([3]; first compound 0.03162 µM): 0.53
- relative viability ([3]; first compound 0.1 µM): 0.608
- relative viability ([3]; first compound 0.3162 µM): 0.553
- relative viability ([3]; first compound 1 µM): 0.59
- relative viability ([4]; first compound 0.0002 µM): 0.766
- relative viability ([4]; first compound 0.000632 µM): 0.794
- relative viability ([4]; first compound 0.002 µM): 0.467
- relative viability ([4]; first compound 0.006325 µM): 0.16
- relative viability ([4]; first compound 0.02 µM): 0.178

Cell Line: LCLC-97TM1
- relative viability ([1]; first compound 0.0002 µM): 0.245
- relative viability ([1]; first compound 0.000632 µM): 0.238
- relative viability ([1]; first compound 0.002 µM): 0.21
- relative viability ([1]; first compound 0.006325 µM): 0.0935
- relative viability ([1]; first compound 0.02 µM): 0.0627
- relative viability ([2]; first compound 0.08 µM): 0.867
- relative viability ([2]; first compound 0.253 µM): 0.724
- relative viability ([2]; first compound 0.8 µM): 0.885
- relative viability ([2]; first compound 2.53 µM): 0.622
- relative viability ([2]; first compound 8 µM): 0.552
- relative viability ([3]; first compound 0.01 µM): 0.996
- relative viability ([3]; first compound 0.03162 µM): 0.954
- relative viability ([3]; first compound 0.1 µM): 0.873
- relative viability ([3]; first compound 0.3162 µM): 0.872
- relative viability ([3]; first compound 1 µM): 0.9
- relative viability ([4]; first compound 0.0002 µM): 0.586
- relative viability ([4]; first compound 0.000632 µM): 0.451
- relative viability ([4]; first compound 0.002 µM): 0.186
- relative viability ([4]; first compound 0.006325 µM): 0.222
- relative viability ([4]; first compound 0.02 µM): 0.0968

Cell Line: NCI-H838
- relative viability ([1]; first compound 0.0002 µM): 0.473
- relative viability ([1]; first compound 0.000632 µM): 0.467
- relative viability ([1]; first compound 0.002 µM): 0.459
- relative viability ([1]; first compound 0.006325 µM): 0.184
- relative viability ([1]; first compound 0.02 µM): 0.138
- relative viability ([2]; first compound 0.08 µM): 0.3
- relative viability ([2]; first compound 0.253 µM): 0.279
- relative viability ([2]; first compound 0.8 µM): 0.247
- relative viability ([2]; first compound 2.53 µM): 0.255
- relative viability ([2]; first compound 8 µM): 0.141
- relative viability ([3]; first compound 0.01 µM): 1.03
- relative viability ([3]; first compound 0.03162 µM): 1.11
- relative viability ([3]; first compound 0.1 µM): 0.996
- relative viability ([3]; first compound 0.3162 µM): 1.1
- relative viability ([3]; first compound 1 µM): 0.858
- relative viability ([4]; first compound 0.0002 µM): 1.21
- relative viability ([4]; first compound 0.000632 µM): 1.21
- relative viability ([4]; first compound 0.002 µM): 1.17
- relative viability ([4]; first compound 0.006325 µM): 0.171
- relative viability ([4]; first compound 0.02 µM): 0.161
